For data set [1], the system named is HIV protease. To be noted: assays described in WO 95/16688; cited from earlier work.
A short description of data set [2]: oral absorption and bioavailability in animal models. The class given is in vivo.
Data set [3] in a line: hydrophobic/hydrophilic nature in formulation. Particulars: dispersion during formulation; HCl (dihydrate) requires wetting agents. The class given is physicochemical.

Results on three molecules are retold here after patent US6071916A, “HIV protease inhibitor” (priority 1998, dated 2000).

Counter-ions that a name gives are not always drawn.

As to `CC(C)(C)NC(=O)[C@@H]1CN(Cc2cc3ccccc3o2)CCN1C[C@@H](O)C[C@@H](Cc1ccccc1)C(=O)N[C@H]1c2ccccc2C[C@H]1O` [Compound A, N-(2(R)-hydroxy-1(S)-indanyl)-2(R)-phenylmethyl-4-(S)-hydroxy-5-(1-(4-(2-benzo[b]furanylmethyl)-2(S)-N'-(t-butylcarboxamido)-piperazinyl))-pentaneamide], the “inhibition of HIV protease” value in data set [1] is reported as “potent inhibitor of HIV protease”.

As for `CC(C)(C)NC(=O)[C@@H]1CN(Cc2cc3ccccc3o2)CCN1C[C@@H](O)C[C@@H](Cc1ccccc1)C(=O)N[C@H]1c2ccccc2C[C@H]1O` [HCl (dihydrate) salt, reference compound], the oral absorption entry in data set [2] (oral, animal models) is on record as “poor”. The “hydrophobic or hydrophilic nature” value in data set [3] is “extremely hydrophobic”.

Regarding `CC(C)(C)NC(=O)[C@@H]1CN(Cc2cc3ccccc3o2)CCN1C[C@@H](O)C[C@@H](Cc1ccccc1)C(=O)N[C@H]1c2ccccc2C[C@H]1O` [sulfate salt], the rate of absorption entry in data set [2] (compared with the existing HCl, HBr and methanesulfonate salts) was “more rapidly absorbed than the existing HCl, HBr and methanesulfonate salts”. Moreover, in data set [2] (oral, animal models), the bioavailability result was “much greater” and the oral absorption entry is on record as “much greater”. For the same molecule, the “hydrophobic or hydrophilic nature” value in data set [3] is recorded as “hydrophilic”.
